The test system of experiment [1] is HT29 cells. Put plainly: Combined use of compound 257, AMG650 or Compound A with PLK1 inhibitor on HT29 cell viability, 168 h (Biological Example 19). It is filed as cell-based. The settings on record: for IC50: HT29 cells. As for the experimental part: HT29 cells were seeded on a 384-well plate at 3000 cells/well.
The test system of experiment [2] is HCT116 cells. Put plainly: Combined use of compound 257, AMG650 or Compound A with PLK1 inhibitor on HCT116 cell viability, 168 h (Biological Example 20). It counts as cell-based. The procedure:
HCT116 cells were seeded on a 384-well plate at 3000 cells/well. After overnight adherence culture, DMSO or compound 257, AMG650, or Compound A serially diluted in a 1:5 ratio from 400 nM and a PLK1 inhibitor with a specified concentration were added. The cell viability was assessed 168 h after dosing by measuring the intracellular ATP content. The inhibition percentages of viable cells by the compounds were calculated by comparing with the DMSO group, and the IC50 values were also calculated.

Experiment [3] relates to HT29 subcutaneous xenograft tumors. Put plainly: In vivo pharmacodynamic study of combination therapy, HT29 subcutaneous xenograft tumor model of mice (Biological Example 14). Details: species or system BALB/c nude mice. An excerpt:
BALB/c nude mice were each inoculated subcutaneously with 5×10^6 HT29 cells on the left dorsal side. After the tumors grew to 100-150 mm^3, the mice were randomly divided into the following groups for intragastric administration once daily for 14 consecutive days: group 1: vehicle control group; group 2: AMG650 (50 mpk, PO, QD); group 3: compound 714 (50 mpk, PO, QD); group 4: AMG650 (50 mpk, PO, QD)+Onvasertib (20 mpk, PO, QD); group 5: compound 714 (50 mpk, PO, QD)+Onvasertib (20 mpk, PO, QD); and group 6: Onvasertib (20 mpk, PO, QD). The administration to all the groups was stopped on day 15, and the tumor growth continued to be observed until day 21. The tumor volume was measured twice weekly and at the end of administration. […]

The test system of experiment [4] is HT29 cells. Put plainly: Combined use of compound 257 or AMG650 with PLK1 inhibitor (Volasertib) on HT29 cell viability, 168 h (Biological Example 22). It counts as cell-based. The following applies: Homo sapiens, HT-29, 168 h, HT29 cells, 168 h, read-out: Volasertib IC50. The procedure: HT29 cells were seeded on a 384-well plate at 3000 cells/well. After overnight adherence culture, DMSO or compound 257 or AMG650 serially diluted in a 1:5 ratio from 400 nM and a PLK1 inhibitor with a specified concentration were added. The cell viability was assessed 168 h after dosing by measuring the intracellular ATP content. […] Furthermore, interactions between the drugs were also analyzed using the BLISS independence model, and the results are shown in FIG. 15 and FIG. 16.

Experiment [5] deals with SK-OV-3 cells. Put plainly: Combined use of compound 257 or AMG650 with PLK1 inhibitor on SK-OV-3 cell viability, 168 h (Biological Example 21). It counts as cell-based. The settings on record: Homo sapiens, SK-OV-3, 168 h, SK-OV-3 cells, 168 h, read-out: Volasertib IC50. The procedure: SK—OV-3 cells were seeded on a 384-well plate at 3000 cells/well. After overnight adherence culture, DMSO or compound 257 or AMG650 serially diluted in a 1:5 ratio from 400 nM and a PLK1 inhibitor with a specified concentration were added. The cell viability was assessed 168 h after dosing by measuring the intracellular ATP content. […] Furthermore, interactions between the drugs were also analyzed using the BLISS independence model, and the results are shown in FIG. 11 and FIG. 12.

Setting [6] is: PO QD 14 days, AMG650/714 50 mpk, Onvasertib 20 mpk, day 15.
The mark [7] stands for this setting: KIF18A inhibitor AMG650 0.0001 nM.
Where [8] appears, read: KIF18A inhibitor AMG650 0.64 nM.
Setting [9] is: KIF18A inhibitor Compound 257 0.0001 nM.
Setting [10] is: KIF18A inhibitor Compound 257 0.64 nM.
Where [11] appears, read: KIF18A inhibitor Compound 257 3.2 nM.
Where [12] appears, read: KIF18A inhibitor Compound 257 16 nM.
[13] abbreviates: KIF18A inhibitor Compound 257 80 nM.
Where [14] appears, read: KIF18A inhibitor Compound 257 400 nM.

Like-named read-outs stand apart in the source and are kept apart here. Where only a bound is given, the exact number is not on record here.

In general, IC50 refers to the concentration that gives 50% inhibition. Consider `COc1cc(C(=O)N[C@H]2CC[C@H](N3CCN(C)CC3)CC2)ccc1Nc1ncc2c(n1)N(C1CCCC1)CC1(CC1)C(=O)N2C` [CYC140 (Plogosertib), Plogosertib], for which the IC50 was determined as 50.1 nM in experiment [1] (KIF18A inhibitor AMG650 0.0001 nM, read-out: PLK1 inhibitor IC50); 48.9 nM in experiment [1] (KIF18A inhibitor AMG650 0.64 nM, read-out: PLK1 inhibitor IC50); 49.9 nM in experiment [1] (KIF18A inhibitor AMG650 3.2 nM, read-out: PLK1 inhibitor IC50); 24.9 nM in experiment [1] (KIF18A inhibitor AMG650 16 nM, read-out: PLK1 inhibitor IC50); 7.9 nM in experiment [1] (KIF18A inhibitor AMG650 80 nM, read-out: PLK1 inhibitor IC50); 3.5 nM in experiment [1] (KIF18A inhibitor AMG650 400 nM, read-out: PLK1 inhibitor IC50). Also, the IC50 in experiment [1] (KIF18A inhibitor Compound 257 0.0001 nM, read-out: PLK1 inhibitor IC50) is 52.1 nM; in experiment [1] (KIF18A inhibitor Compound 257 0.64 nM, read-out: PLK1 inhibitor IC50), 37 nM; in experiment [1] (KIF18A inhibitor Compound 257 3.2 nM, read-out: PLK1 inhibitor IC50), 15.5 nM; in experiment [1] (KIF18A inhibitor Compound 257 16 nM, read-out: PLK1 inhibitor IC50) it was 3.8 nM; in experiment [1] (KIF18A inhibitor Compound 257 80 nM, read-out: PLK1 inhibitor IC50), 1.6 nM; in experiment [1] (KIF18A inhibitor Compound 257 400 nM, read-out: PLK1 inhibitor IC50) it was 2.2 nM.

`CCS(=O)(=O)Nc1ccc2c(c1)C1(CCC3(CC3)CC1)CN2C(=O)c1cccc(S(=O)(=O)NC(C)(C)C)c1` [Compound A]: in experiment [1] (CYC140 or TAK-960, in words), the “inhibitory effect on HT-29 cells, combined use with the PLK1 inhibitor compared with monotherapy” value was “stronger inhibitory effect”. Besides, the IC50 in experiment [1] (Homo sapiens, HT-29, 168 h, CYC140 (Plogosertib) 0.0001 nM, read-out: IC50) turned out to be 26.1 nM; in experiment [1] (Homo sapiens, HT-29, 168 h, CYC140 (Plogosertib) 1.6 nM, read-out: IC50), 19.6 nM; in experiment [1] (Homo sapiens, HT-29, 168 h, CYC140 (Plogosertib) 8 nM, read-out: IC50) it was 15.5 nM; in experiment [1] (Homo sapiens, HT-29, 168 h, CYC140 (Plogosertib) 40 nM, read-out: IC50), 2.2 nM; in experiment [1] (Homo sapiens, HT-29, 168 h, TAK-960 0.0001 nM, read-out: IC50), 23.8 nM; in experiment [1] (Homo sapiens, HT-29, 168 h, TAK-960 1.6 nM, read-out: IC50), 17.3 nM. Moreover, the IC50 in experiment [1] (Homo sapiens, HT-29, 168 h, TAK-960 8 nM, read-out: IC50) is 4.2 nM; in experiment [1] (Homo sapiens, HT-29, 168 h, TAK-960 40 nM, read-out: IC50) it was 4.1 nM; in experiment [2] (HCT116 cells, CYC140 (Plogosertib) 1.6 nM) it was above 400 nM; in experiment [2] (HCT116 cells, CYC140 (Plogosertib) 8 nM) it was above 400 nM; in experiment [2] (HCT116 cells, CYC140 (Plogosertib) 40 nM), above 400 nM; in experiment [2] (HCT116 cells, TAK-960 0 nM), above 400 nM. Also, the IC50 is above 400 nM in experiment [2] (HCT116 cells, TAK-960 1.6 nM); above 400 nM in experiment [2] (HCT116 cells, TAK-960 8 nM); above 400 nM in experiment [2] (HCT116 cells, TAK-960 40 nM); above 400 nM in experiment [2] (Homo sapiens, HCT-116, HCT116 cells, CYC140 (Plogosertib) 0 nM). Also, the “synergistic effect on HCT116 cell viability, combined use with the PLK1 inhibitor” value in experiment [2] (CYC140 or TAK-960, in words) is recorded as “no significant synergistic effect”. In addition, in experiment [2] (in words), the “anti-proliferative activity against HCT116 cells, monotherapy” value was “did not exhibit anti-proliferative activity”.

On to `CN1CCN(c2ccc(OC(F)(F)F)c(Nc3ncc4c(n3)-c3c(c(C(N)=O)nn3CCO)CC4)c2)CC1` [Onvasertib, Onvansertib], for which the “Tumor volume on day 1 of administration” value in experiment [3] (PO QD 14 days, AMG650/714 50 mpk, Onvasertib 20 mpk, day 1 (baseline)) came out at 134 mm^3. Also, in experiment [3] (setting [6]), the “TGI on day 15” value worked out at 80% and the “Tumor volume on day 15 of administration” value is listed as 249 mm^3. The “therapeutic efficacy of monotherapy in HT29-bearing mice” value in experiment [3] (monotherapy, in words) is reported as “relatively weak therapeutic efficacy”.

For the molecule `CC[C@@H]1C(=O)N(C)c2cnc(Nc3ccc(C(=O)N[C@H]4CC[C@H](N5CCN(CC6CC6)CC5)CC4)cc3OC)nc2N1C(C)C` [Volasertib], the IC50 in experiment [4] (setting [7]) stood at 22.8 nM; in experiment [4] (setting [8]), 37.8 nM; in experiment [4] (KIF18A inhibitor AMG650 3.2 nM), 34.9 nM; in experiment [4] (KIF18A inhibitor AMG650 16 nM) it was 19.5 nM; in experiment [4] (KIF18A inhibitor AMG650 80 nM), 18.3 nM; in experiment [4] (KIF18A inhibitor AMG650 400 nM), 15.5 nM. The IC50 in experiment [4] (setting [9]) came to 17.2 nM; in experiment [4] (setting [10]), 15.6 nM; in experiment [4] (setting [11]), 10.2 nM; in experiment [4] (setting [12]) it was 1.2 nM; in experiment [4] (setting [13]), 1.4 nM; in experiment [4] (setting [14]), 0.7 nM. For the same molecule, the IC50 in experiment [5] (setting [7]) came to 82.1 nM; in experiment [5] (setting [8]), 70.5 nM; in experiment [5] (KIF18A inhibitor AMG650 3.2 nM), 60.5 nM; in experiment [5] (KIF18A inhibitor AMG650 16 nM), 38.2 nM; in experiment [5] (KIF18A inhibitor AMG650 80 nM), 9.9 nM; in experiment [5] (KIF18A inhibitor AMG650 400 nM), 8.1 nM. Also, the IC50 in experiment [5] (setting [9]) amounted to 77.9 nM; in experiment [5] (setting [10]), 61.6 nM; in experiment [5] (setting [11]), 35.8 nM; in experiment [5] (setting [12]) it was 10.1 nM; in experiment [5] (setting [13]) it was 5.7 nM; in experiment [5] (setting [14]) it was 5.3 nM.
